Key:
Carbonic anhydrase 2 = Carbonic anhydrase 2 (Homo sapiens, UniProt P00918)
Description: Inhibition of human carbonic anhydrase 2 preincubated for 15 mins by CO2 hydration stopped-flow assay

Carbonic anhydrase 9 = Carbonic anhydrase 9 (Homo sapiens, UniProt Q16790)
Description: Inhibition of human carbonic anhydrase 9 preincubated for 15 mins by CO2 hydration stopped-flow assay

Carbonic anhydrase 14 = Carbonic anhydrase 14 (Homo sapiens, UniProt Q9ULX7)
Description: Inhibition of human carbonic anhydrase 14 preincubated for 15 mins by CO2 hydration stopped-flow assay

Carbonic anhydrase 7 = Carbonic anhydrase 7 (Homo sapiens, UniProt P43166); assay: Inhibition of human carbonic anhydrase 7 preincubated for 15 mins by CO2 hydration stopped-flow assay
Carbonic anhydrase 1 = Carbonic anhydrase 1 (Homo sapiens, UniProt P00915)
Description: Inhibition of human carbonic anhydrase 1 preincubated for 15 mins by CO2 hydration stopped-flow assay

Carbonic anhydrase 12 = Carbonic anhydrase 12 (Homo sapiens, UniProt O43570)
Sequence of Carbonic anhydrase 12 (O43570 whole entry): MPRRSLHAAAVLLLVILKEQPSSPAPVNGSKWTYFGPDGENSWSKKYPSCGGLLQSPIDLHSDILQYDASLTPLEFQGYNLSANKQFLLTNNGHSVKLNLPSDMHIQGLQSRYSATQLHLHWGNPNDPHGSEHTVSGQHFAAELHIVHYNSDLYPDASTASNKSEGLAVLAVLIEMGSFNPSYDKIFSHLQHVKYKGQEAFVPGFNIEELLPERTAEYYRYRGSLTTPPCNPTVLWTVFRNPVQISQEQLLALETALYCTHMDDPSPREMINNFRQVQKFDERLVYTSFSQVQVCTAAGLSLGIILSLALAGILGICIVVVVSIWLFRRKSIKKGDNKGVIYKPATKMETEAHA

Sequence of Carbonic anhydrase 14 (Q9ULX7 whole entry): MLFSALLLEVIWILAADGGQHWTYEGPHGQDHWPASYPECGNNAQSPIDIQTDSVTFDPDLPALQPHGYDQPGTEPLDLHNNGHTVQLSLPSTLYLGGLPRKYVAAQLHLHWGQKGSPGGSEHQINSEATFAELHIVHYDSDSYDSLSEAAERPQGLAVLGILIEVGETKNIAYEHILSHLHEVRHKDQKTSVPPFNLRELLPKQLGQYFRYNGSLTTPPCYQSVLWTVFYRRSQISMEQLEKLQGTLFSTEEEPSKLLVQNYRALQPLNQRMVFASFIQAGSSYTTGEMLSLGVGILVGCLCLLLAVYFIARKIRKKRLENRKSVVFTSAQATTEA
Sequence of Carbonic anhydrase 1 (P00915 whole entry): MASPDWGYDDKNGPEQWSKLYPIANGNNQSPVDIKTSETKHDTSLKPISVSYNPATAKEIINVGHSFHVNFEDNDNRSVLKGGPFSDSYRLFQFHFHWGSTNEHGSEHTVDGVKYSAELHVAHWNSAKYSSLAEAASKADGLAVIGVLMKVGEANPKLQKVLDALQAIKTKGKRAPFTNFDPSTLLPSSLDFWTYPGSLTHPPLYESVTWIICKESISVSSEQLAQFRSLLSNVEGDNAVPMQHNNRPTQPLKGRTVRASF
Sequence of Carbonic anhydrase 7 (P43166 whole entry): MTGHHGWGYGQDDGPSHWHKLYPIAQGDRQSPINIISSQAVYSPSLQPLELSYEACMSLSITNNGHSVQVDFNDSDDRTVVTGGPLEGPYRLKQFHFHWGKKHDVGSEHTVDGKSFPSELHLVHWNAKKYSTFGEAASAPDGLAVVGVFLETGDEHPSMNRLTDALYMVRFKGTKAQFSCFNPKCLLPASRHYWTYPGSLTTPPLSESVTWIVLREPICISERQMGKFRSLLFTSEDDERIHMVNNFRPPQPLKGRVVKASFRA

| Ki (Carbonic anhydrase 2) [nM] | Ki (Carbonic anhydrase 9) [nM] | Ki (Carbonic anhydrase 14) [nM] | Ki (Carbonic anhydrase 7) [nM] | Ki (Carbonic anhydrase 1) [nM] | Ki (Carbonic anhydrase 12) [nM] | SMILES |
| --- | --- | --- | --- | --- | --- | --- |
| 770 | 840 |  |  |  |  | COC(=O)c1cc(O)ccc1O [METHYL 2,5-DIHYDROXYBENZOATE] |
| 580 | 790 |  |  |  |  | COC(=O)c1ccc(O)c(O)c1 [METHYL PROTOCATECHUATE] |
| 690 | 810 |  |  |  |  | COC(=O)c1cc(O)cc(O)c1 [METHYL 3,5-DIHYDROXYBENZOATE] |
| 320 | 680 |  |  |  |  | Cc1cc(C)[n+](-c2cccc(O)c2)c(C)c1 |
| 520 | 680 | 730 | 690 | 540 | 760 | CC(C)OC(=O)/C=C/c1ccc(O)cc1 [ISOPROPYL 3-(4-HYDROXYPHENYL)ACRYLATE] |
| 3400 | 5500 | 4100 | 780 | 2600 | 820 | COC(=O)c1ccc(O)cc1 [METHYLPARABEN] |
| 4700 | 4900 | 7200 | 5900 | 4900 | 7700 | Nc1cccc(O)c1 [3-AMINOPHENOL] |
| 510 | 310 |  |  |  |  | CC(C)OC(=O)c1ccc(O)cc1O |
| 490 | 700 |  |  |  |  | Cc1cc(C)[n+](-c2cc(O)ccc2Cl)c(C)c1 |
| 4400 | 6700 |  |  |  |  | O=C(O)c1cc(-c2c3ccc(=O)cc-3oc3cc(O)ccc23)ccc1NC(=S)NCCc1ccc(O)c(O)c1 |
|  | 6600 | 67000 | 68000 | 4200 | 7300 | O=C(O)c1cc(O)ccc1O [GENTISIC ACID] |
| 520 | 820 |  |  |  |  | CCOC(=O)c1ccc(O)cc1O |
|  |  | 690 | 7870 |  |  | O=C(O)c1ccc(O)c(O)c1 [PROTOCATECHUIC ACID] |
|  |  | 6790 | 3880 |  |  | COc1ccc(OC)cc1 [1,4-DIMETHOXYBENZENE] |

More lines, now with the values behind:

| SMILES | Ki (Carbonic anhydrase 2) [nM] | Ki (Carbonic anhydrase 9) [nM] | Ki (Carbonic anhydrase 14) [nM] | Ki (Carbonic anhydrase 7) [nM] | Ki (Carbonic anhydrase 1) [nM] | Ki (Carbonic anhydrase 12) [nM] |
| --- | --- | --- | --- | --- | --- | --- |
| O=C(O)c1cc(O)cc(O)c1 [3,5-DIHYDROXYBENZOIC ACID] |  |  | 650 | 7170 |  |  |
| COc1ccc(C(=O)O)cc1OC [VERATRIC ACID] |  |  | 740 | 7150 |  |  |
| O=C(O)c1c(O)cccc1O | 5200 | 5900 | 6500 | 6600 | 5700 | 7200 |
| COC(=O)/C=C/c1ccc(O)cc1 [METHYL P-HYDROXYCINNAMATE] | 800 | 850 | 830 | 820 | 780 | 810 |
| CC(C)OC(=O)c1c(O)cccc1O | 530 | 790 |  |  |  |  |
| Cc1cc(C)[n+](CCc2ccccc2-c2ccccc2)c(C)c1 | 4700 | 710 |  |  |  |  |
| COC(=O)c1ccc(O)cc1O [METHYL 2,4-DIHYDROXYBENZOATE] | 760 | 890 | 860 | 850 | 830 | 950 |
| Cc1cc(C)[n+](CCc2ccccc2C)c(C)c1 | 6800 | 830 |  |  |  |  |
| CCOC(=O)c1c(O)cccc1O | 560 | 780 |  |  |  |  |
| Nc1cc(O)ccc1Cl | 4900 | 4700 |  |  |  |  |
| CCOC(=O)c1ccc(O)cc1 [ETHYLPARABEN] | 4800 | 8200 | 7700 | 8700 | 7900 | 8600 |
| COC(=O)c1c(O)cccc1O | 700 | 810 |  |  |  |  |
| CC(C)OC(=O)c1cc(O)ccc1O | 580 | 810 |  |  |  |  |
| CCOC(=O)c1ccc(O)c(O)c1 | 610 | 780 |  |  |  |  |
| O=C(O)c1ccc(O)cc1O [2,4-DIHYDROXYBENZOIC ACID] | 4900 | 68000 | 70000 | 72000 | 5200 | 7500 |
| CC(C)OC(=O)c1cc(O)cc(O)c1 | 700 | 900 |  |  |  |  |
| CCOC(=O)c1cc(O)ccc1O | 690 |  |  |  |  |  |
| CCOC(=O)c1cc(O)cc(O)c1 | 660 | 910 |  |  |  |  |
| CC(C)OC(=O)c1ccc(O)c(O)c1 | 420 | 800 |  |  |  |  |
| CC(C)OC(=O)c1ccc(O)cc1 [ISOPROPYL 4-HYDROXYBENZOATE] | 4400 | 7400 |  |  |  |  |
| CCOC(=O)/C=C/c1ccc(O)cc1 [ETHYL P-COUMARATE] | 710 | 610 |  |  |  |  |

Reference: ChEMBL document CHEMBL2331404, “Mono-/dihydroxybenzoic acid esters and phenol pyridinium derivatives as inhibitors of the mammalian carbonic anhydrase isoforms I, II, VII, IX, XII and XIV” (Bioorg Med Chem, 2013)
